{"source": "patent US8999970B2", "about": "“Administration of an anti-obesity compound to individuals with renal impairment” (Arena Pharmaceuticals, Inc., priority 2010, dated 2015)", "key": {"[1]": {"test": "Preclinical toxicology: lorcaserin, M1 and M5 pharmacokinetics after oral administration of lorcaserin, 52 wk, monkeys", "conditions": "for AUC0-inf / AUClast / Cmax / tmax: Monkeys, 52 wk", "experimental": "Lorcaserin doses of 0, 2, 10, 50, and 125 mg/kg in a 5 mL/kg dose volume were administered by nasogastric intubation once daily for 12 months to cynomolgus monkeys (4 to 6/sex/group). Two animals/sex from the control, 50 and 125 mg/kg groups were continued on study without further dosing for an additional 4 weeks prior to termination. For the first 91 days of the study, dose solutions were prepared using anhydrous lorcaserin. Starting on Day 92 and continuing for the remainder of the study, dose solutions were prepared using lorcaserin hemihydrate to match the intended commercial form. […] Evaluations included clinical signs, food consumption, BW, electrocardiograms, ophthalmic exams, and clinical pathology indices. Blood samples were collected for TK analysis on Day 1, Week 4, Day 91, Day 92, and Week 52. A full necropsy was conducted on all animals, and tissues were collected, preserved, processed, and examined microscopically. Additional sections of heart were collected to allow comprehensive evaluation of all heart valves. Heart histopathologic evaluation included atria, ventricles, interventricular septum, both AV valves (mitral and tricuspid), and the aortic and pulmonic valves."}, "[2]": {"tested_on": "panel of receptors, ion channels and transporters", "test": "Pharmacological activity of metabolites at a panel of receptors, ion channels and transporters"}, "[3]": {"test": "Preclinical toxicology: M1 and M5 pharmacokinetics after oral administration of lorcaserin, 52 wk, mice"}, "[4]": {"test": "Preclinical toxicology: M1 and M5 pharmacokinetics after oral administration of lorcaserin, 52 wk, rats"}, "[5]": {"conditions": "lorcaserin 10 mg/kg/day oral, F"}, "[6]": {"conditions": "lorcaserin 10 mg/kg/day oral, M"}, "[7]": {"conditions": "lorcaserin 50 mg/kg/day oral, F"}, "[8]": {"conditions": "lorcaserin 50 mg/kg/day oral, M"}, "[9]": {"conditions": "lorcaserin 125 mg/kg/day oral, F"}, "[10]": {"conditions": "lorcaserin 125 mg/kg/day oral, M"}, "[11]": {"conditions": "lorcaserin 25 mg/kg/day oral, F"}, "[12]": {"conditions": "lorcaserin 25 mg/kg/day oral, M"}, "[13]": {"conditions": "lorcaserin 30 mg/kg/day oral, F"}, "[14]": {"conditions": "lorcaserin 30 mg/kg/day oral, M"}, "[15]": {"conditions": "lorcaserin 100 mg/kg/day oral, F"}, "[16]": {"conditions": "lorcaserin 100 mg/kg/day oral, M"}}, "data": [{"smiles": "C[C@H]1CN(C(=O)O[C@@H]2O[C@H](C(=O)O)[C@@H](O)[C@H](O)[C@H]2O)CCc2ccc(Cl)cc21", "note": "[Compound M5, N-carbamoyl glucuronide of lorcaserin]", "values": [{"measurement": "AUC0-inf", "setting": "[1]; lorcaserin 2 mg/kg/day oral, F", "value": "2130 ± 820", "unit": "ng·h/mL"}, {"measurement": "AUClast", "setting": "[1]; lorcaserin 2 mg/kg/day oral, F", "value": "1760 ± 830", "unit": "ng·h/mL"}, {"measurement": "Cmax", "setting": "[1]; lorcaserin 2 mg/kg/day oral, F", "value": "771 ± 104", "unit": "ng/mL"}, {"measurement": "tmax", "setting": "[1]; lorcaserin 2 mg/kg/day oral, F", "value": "30 ± 0", "unit": "min"}, {"measurement": "AUC0-inf", "setting": "[1]; lorcaserin 2 mg/kg/day oral, M", "value": "2380 ± 290", "unit": "ng·h/mL"}, {"measurement": "AUClast", "setting": "[1]; lorcaserin 2 mg/kg/day oral, M", "value": "1820 ± 570", "unit": "ng·h/mL"}, {"measurement": "Cmax", "setting": "[1]; lorcaserin 2 mg/kg/day oral, M", "value": "635 ± 310", "unit": "ng/mL"}, {"measurement": "tmax", "setting": "[1]; lorcaserin 2 mg/kg/day oral, M", "value": "48 ± 18", "unit": "min"}, {"measurement": "AUC0-inf", "setting": "[1]; [5]", "value": "6520 ± 1520", "unit": "ng·h/mL"}, {"measurement": "AUClast", "setting": "[1]; [5]", "value": "6140 ± 1710", "unit": "ng·h/mL"}, {"measurement": "tmax", "setting": "[1]; [5]", "value": "60 ± 42", "unit": "min"}, {"measurement": "AUC0-inf", "setting": "[1]; [6]", "value": "13600 ± 5000", "unit": "ng·h/mL"}, {"measurement": "AUClast", "setting": "[1]; [6]", "value": "12500 ± 6100", "unit": "ng·h/mL"}, {"measurement": "Cmax", "setting": "[1]; [6]", "value": "2480 ± 1140", "unit": "ng/mL"}, {"measurement": "tmax", "setting": "[1]; [6]", "value": "108 ± 30", "unit": "min"}, {"measurement": "AUC0-inf", "setting": "[1]; [7]", "value": "40400 ± 13400", "unit": "ng·h/mL"}, {"measurement": "AUClast", "setting": "[1]; [7]", "value": "38700 ± 12700", "unit": "ng·h/mL"}, {"measurement": "Cmax", "setting": "[1]; [7]", "value": "3600 ± 620", "unit": "ng/mL"}, {"measurement": "tmax", "setting": "[1]; [7]", "value": "192 ± 108", "unit": "min"}, {"measurement": "AUC0-inf", "setting": "[1]; [8]", "value": "71400 ± 26600", "unit": "ng·h/mL"}, {"measurement": "AUClast", "setting": "[1]; [8]", "value": "69000 ± 25800", "unit": "ng·h/mL"}, {"measurement": "Cmax", "setting": "[1]; [8]", "value": "7040 ± 2050", "unit": "ng/mL"}, {"measurement": "tmax", "setting": "[1]; [8]", "value": "138 ± 114", "unit": "min"}, {"measurement": "AUC0-inf", "setting": "[1]; [9]", "value": "140000 ± 78000", "unit": "ng·h/mL"}, {"measurement": "AUClast", "setting": "[1]; [9]", "value": "134000 ± 78000", "unit": "ng·h/mL"}, {"measurement": "Cmax", "setting": "[1]; [9]", "value": "19700 ± 13500", "unit": "ng/mL"}, {"measurement": "tmax", "setting": "[1]; [9]", "value": "162 ± 120", "unit": "min"}, {"measurement": "AUC0-inf", "setting": "[1]; [10]", "value": "182000 ± 77000", "unit": "ng·h/mL"}, {"measurement": "AUClast", "setting": "[1]; [10]", "value": "170000 ± 64000", "unit": "ng·h/mL"}, {"measurement": "Cmax", "setting": "[1]; [10]", "value": "15800 ± 3700", "unit": "ng/mL"}, {"measurement": "tmax", "setting": "[1]; [10]", "value": "132 ± 114", "unit": "min"}, {"measurement": "AUC0-inf in monkeys relative to predicted daily exposure in moderate renal impairment", "setting": "[1]; monkeys 2 mg/kg/day", "value": "approximately equal"}, {"measurement": "AUC0-inf in monkeys relative to predicted daily exposure in severe renal impairment", "setting": "[1]; monkeys 2 mg/kg/day (NOAEL), human 10 mg BID", "value": "approximately half"}, {"measurement": "Cmax in monkeys relative to predicted Cmax in severe renal impairment", "setting": "[1]; monkeys 2 mg/kg/day (NOAEL), human 10 mg BID steady state", "value": "2.8-3.5 times"}, {"measurement": "Exposure in monkeys relative to predicted daily exposure in moderate renal impairment", "setting": "[1]; monkeys 10 mg/kg/day", "value": "3.0-6.3 times"}, {"measurement": "AUC0-inf exposure margin, monkeys vs predicted daily exposure in severe renal impairment", "setting": "[1]; monkeys 10 mg/kg/day, human 10 mg BID", "value": "1.5-3.2 fold"}, {"measurement": "Dose proportionality of plasma exposure", "setting": "[1]; monkeys, Day 1, 2 to 125 mg/kg, both sexes", "value": "more than dose proportional"}, {"measurement": "Exposure relative to the concomitant lorcaserin exposure, higher", "setting": "[1]; monkeys, single or multiple doses of lorcaserin", "value": "up to 3 fold"}, {"measurement": "Activity at serotonin receptors or at a panel of more than 60 GPCRs, transporters and ion channels", "setting": "[2]", "value": "neither metabolite is active"}, {"measurement": "Pharmacological activity at all receptors, transporters and ion channels tested to date", "setting": "[2]", "value": "pharmacologically inactive"}, {"measurement": "AUC0-inf", "setting": "[3]; lorcaserin 5 mg/kg/day oral, F", "value": 201, "unit": "ng·h/mL"}, {"measurement": "AUClast", "setting": "[3]; lorcaserin 5 mg/kg/day oral, F", "value": 184, "unit": "ng·h/mL"}, {"measurement": "Cmax", "setting": "[3]; lorcaserin 5 mg/kg/day oral, F", "value": 100, "unit": "ng/mL"}, {"measurement": "tmax", "setting": "[3]; lorcaserin 5 mg/kg/day oral, F", "value": 30, "unit": "min"}, {"measurement": "AUC0-inf", "setting": "[3]; lorcaserin 5 mg/kg/day oral, M", "value": 178, "unit": "ng·h/mL"}, {"measurement": "AUClast", "setting": "[3]; lorcaserin 5 mg/kg/day oral, M", "value": 134, "unit": "ng·h/mL"}, {"measurement": "Cmax", "setting": "[3]; lorcaserin 5 mg/kg/day oral, M", "value": 98.3, "unit": "ng/mL"}, {"measurement": "tmax", "setting": "[3]; lorcaserin 5 mg/kg/day oral, M", "value": 30, "unit": "min"}, {"measurement": "AUClast", "setting": "[3]; [11]", "value": 1210, "unit": "ng·h/mL"}, {"measurement": "Cmax", "setting": "[3]; [11]", "value": 431, "unit": "ng/mL"}, {"measurement": "tmax", "setting": "[3]; [11]", "value": 30, "unit": "min"}, {"measurement": "AUClast", "setting": "[3]; [12]", "value": 1840, "unit": "ng·h/mL"}, {"measurement": "Cmax", "setting": "[3]; [12]", "value": 590, "unit": "ng/mL"}, {"measurement": "tmax", "setting": "[3]; [12]", "value": 30, "unit": "min"}, {"measurement": "AUC0-inf", "setting": "[3]; [7]", "value": 3260, "unit": "ng·h/mL"}, {"measurement": "AUClast", "setting": "[3]; [7]", "value": 3230, "unit": "ng·h/mL"}, {"measurement": "Cmax", "setting": "[3]; [7]", "value": 824, "unit": "ng/mL"}, {"measurement": "tmax", "setting": "[3]; [7]", "value": 30, "unit": "min"}, {"measurement": "AUC0-inf", "setting": "[3]; [8]", "value": 3470, "unit": "ng·h/mL"}, {"measurement": "AUClast", "setting": "[3]; [8]", "value": 3420, "unit": "ng·h/mL"}, {"measurement": "Cmax", "setting": "[3]; [8]", "value": 1000, "unit": "ng/mL"}, {"measurement": "tmax", "setting": "[3]; [8]", "value": 30, "unit": "min"}, {"measurement": "AUC0-inf", "setting": "[4]; [5]", "value": 349, "unit": "ng·h/mL"}, {"measurement": "AUClast", "setting": "[4]; [5]", "value": 273, "unit": "ng·h/mL"}, {"measurement": "Cmax", "setting": "[4]; [5]", "value": 53.8, "unit": "ng/mL"}, {"measurement": "tmax", "setting": "[4]; [5]", "value": 30, "unit": "min"}, {"measurement": "AUC0-inf", "setting": "[4]; [6]", "value": 602, "unit": "ng·h/mL"}, {"measurement": "AUClast", "setting": "[4]; [6]", "value": 550, "unit": "ng·h/mL"}, {"measurement": "Cmax", "setting": "[4]; [6]", "value": 178, "unit": "ng/mL"}, {"measurement": "tmax", "setting": "[4]; [6]", "value": 60, "unit": "min"}, {"measurement": "AUC0-inf", "setting": "[4]; [13]", "value": 1960, "unit": "ng·h/mL"}, {"measurement": "AUClast", "setting": "[4]; [13]", "value": 1620, "unit": "ng·h/mL"}, {"measurement": "Cmax", "setting": "[4]; [13]", "value": 337, "unit": "ng/mL"}, {"measurement": "tmax", "setting": "[4]; [13]", "value": 60, "unit": "min"}, {"measurement": "AUC0-inf", "setting": "[4]; [14]", "value": 3100, "unit": "ng·h/mL"}, {"measurement": "AUClast", "setting": "[4]; [14]", "value": 3070, "unit": "ng·h/mL"}, {"measurement": "Cmax", "setting": "[4]; [14]", "value": 559, "unit": "ng/mL"}, {"measurement": "tmax", "setting": "[4]; [14]", "value": 30, "unit": "min"}, {"measurement": "AUC0-inf", "setting": "[4]; [15]", "value": 12800, "unit": "ng·h/mL"}, {"measurement": "AUClast", "setting": "[4]; [15]", "value": 11100, "unit": "ng·h/mL"}, {"measurement": "Cmax", "setting": "[4]; [15]", "value": 1200, "unit": "ng/mL"}, {"measurement": "tmax", "setting": "[4]; [15]", "value": 120, "unit": "min"}, {"measurement": "AUC0-inf", "setting": "[4]; [16]", "value": 16500, "unit": "ng·h/mL"}, {"measurement": "AUClast", "setting": "[4]; [16]", "value": 14900, "unit": "ng·h/mL"}, {"measurement": "Cmax", "setting": "[4]; [16]", "value": 2030, "unit": "ng/mL"}, {"measurement": "tmax", "setting": "[4]; [16]", "value": 30, "unit": "min"}]}]}
